{"source": "patent US8852656B2", "about": "“Sleep improvement composition” (Taiyokagaku Co., Ltd., priority 2004, dated 2014)", "key": {"rat": {"system": "rat", "conditions": "administered to a rat; cited from earlier work"}, "mice": {"system": "mice", "type": "in vivo", "conditions": "oral administration of 5 g/kg", "from_the_text": "In particular, theanine is known as a “umami” component of tea, is used as a food additive for providing flavor, and the Food Sanitation Law places no restrictions in addition amount."}, "[1]": {"conditions": "reported, Patent Document 1; cited from earlier work"}}}
{"compound": "CC/C=C\\C/C=C\\C/C=C\\C/C=C\\C/C=C\\C/C=C\\CCC(=O)O[C@H](COC(=O)CCCCCCC/C=C\\CCCCCCCC)COP(=O)([O-])OCC[N+](C)(C)C", "note": "[1-oleoyl-2-DHA-sn-3-phosphocholine]", "values": [{"measurement": "Effect on sleep", "setting": "rat", "result": "the total sleeping time within 24 hours, the REM sleeping time, and the REM sleeping time with respect to the total sleeping time are increased"}]}
{"compound": "CCNC(=O)CC[C@H](N)C(=O)O", "note": "[theanine]", "values": [{"measurement": "Death in acute toxicity test", "setting": "mice", "result": "no cases of death"}]}
{"compound": "C[C@@H]1CC[C@H]2C(C)(C)[C@H]3C[C@@]12CC[C@@]3(C)O", "note": "[cedrol]", "values": [{"measurement": "Effect on sleep", "setting": "[1]", "result": "elongate the total sleeping time, shorten the sleep latency time, and increase the sleep efficiency"}]}
